Reference: US20230106592A1, “METHOD FOR TREATING CANCER USING A COMBINATION OF DNA DAMAGING AGENTS AND ATR INHIBITORS” (Vertex Pharmaceuticals Incorporated, priority 2015, published 2023)

Test: Phase I trial, combination with carboplatin: adverse events and DLTs
Type: in vivo, human
Procedure: Pts with advanced solid tumors enrolled in 2 sequential parts.
In part A, single pt cohorts received a compound of Formula A-2 once weekly in 21-day cycles with 3+3 dose escalation cohorts being implemented if grade 2 drug-related adverse events (AEs) occurred. […] If a DLT was reported, the cohort was expanded to include 3 additional pts with subsequent dose escalation being permitted if no further DLTs occurred. Paired pre- and post-treatment biopsies from selected pts in part B were assessed for pCHK1 levels by immunohistochemistry. Models based on preclinical and clinical data were used to simulate hematologic toxicities and pCHK1 inhibition for pts treated with a compound of Formula A-2 and CP.

[1] = A-2 120 mg/m^2 + Carboplatin AUC4 (N = 3)
[2] = A-2 120 mg/m^2 + Carboplatin AUC5 (N = 3)
[3] = A-2 240 mg/m2 + Carboplatin AUC 5 (n = 3)
[4] = A-2 240 mg/m^2 + Carboplatin AUC5 (N = 3)
[5] = A-2 + Carboplatin, Total (N = 15)
[6] = A-2 + Carboplatin, Total (N = 19)

CNCc1ccc(-c2cc(-c3nc(-c4ccc(S(=O)(=O)C(C)C)cc4)cnc3N)on2)cc1 [Compound A-2]
Treatment related adverse event: Vomiting, All [1]: 0 | Treatment related adverse event: Vomiting, ≥3 [1]: 0 | Treatment related adverse event: Alopecia, All [2]: 0 | Treatment related adverse event: Alopecia, ≥3 [2]: 0 | Treatment related adverse event: Anemia, All [2]: 2 | Treatment related adverse event: Anemia, ≥3 [2]: 0 | Treatment related adverse event: Fatigue, All [2]: 1 | Treatment related adverse event: Fatigue, ≥3 [2]: 0 | Treatment related adverse event: Flushing, All [2]: 1 | Treatment related adverse event: Flushing, ≥3 [2]: 1 | Treatment related adverse event: Headache, All [2]: 0 | Treatment related adverse event: Headache, ≥3 [2]: 0 | Treatment related adverse event: Hypertension, All [2]: 0 | Treatment related adverse event: Hypertension, ≥3 [2]: 0 | Treatment related adverse event: Nausea, All [2]: 2 | Treatment related adverse event: Nausea, ≥3 [2]: 0 | Treatment related adverse event: Neuropathy peripheral, All [2]: 0 | Treatment related adverse event: Neuropathy peripheral, ≥3 [2]: 0 | Treatment related adverse event: Neutropenia, All [2]: 2 | Treatment related adverse event: Neutropenia, ≥3 [2]: 1 | Treatment related adverse event: Respiratory tract infection, All [2]: 0 | Treatment related adverse event: Respiratory tract infection, ≥3 [2]: 0 | Treatment related adverse event: Thrombocytopenia, All [2]: 1 | Treatment related adverse event: Thrombocytopenia, ≥3 [2]: 0 | Treatment related adverse event: Vomiting, All [2]: 0 | Treatment related adverse event: Vomiting, ≥3 [2]: 0 | Treatment related adverse event: Alopecia, All Grades [3]: 0 n (%) | Treatment related adverse event: Alopecia, Grade ≥ 3 [3]: 0 n (%) | Treatment related adverse event: Anemia, All Grades [3]: 3 (100) n (%) | Treatment related adverse event: Anemia, Grade ≥ 3 [3]: 0 n (%) | Treatment related adverse event: Any Event, All Grades [3]: 3 (100) n (%) | Treatment related adverse event: Fatigue, Grade ≥ 3 [3]: 0 n (%) | Treatment related adverse event: Flushing, All Grades [3]: 1 (33.3) n (%) | Treatment related adverse event: Flushing, Grade ≥ 3 [3]: 0 n (%) | Treatment related adverse event: Headache, Grade ≥ 3 [3]: 0 n (%) | Treatment related adverse event: Hypersensitivity, All Grades [3]: 1 (33.3) n (%) | Treatment related adverse event: Hypersensitivity, Grade ≥ 3 [3]: 0 n (%) | Treatment related adverse event: Infusion related reaction, All Grades [3]: 0 n (%) | Treatment related adverse event: Infusion related reaction, Grade ≥ 3 [3]: 0 n (%) | Treatment related adverse event: Nausea, All Grades [3]: 3 (100) n (%) | Treatment related adverse event: Nausea, Grade ≥ 3 [3]: 0 n (%) | Treatment related adverse event: Neuropathy peripheral, Grade ≥ 3 [3]: 0 n (%) | Treatment related adverse event: Neutropenia, All Grades [3]: 3 (100) n (%) | Treatment related adverse event: Pruritus, All Grades [3]: 1 (33.3) n (%) | Treatment related adverse event: Pruritus, Grade ≥ 3 [3]: 0 n (%) | Treatment related adverse event: Thrombocytopenia, All Grades [3]: 3 (100) n (%) | Treatment related adverse event: Thrombocytopenia, Grade ≥ 3 [3]: 1 (33.3) n (%) | Treatment related adverse event: Vomiting, Grade ≥ 3 [3]: 0 n (%) | Treatment related adverse event: Alopecia, All [4]: 0 | Treatment related adverse event: Alopecia, ≥3 [4]: 0 | Treatment related adverse event: Anemia, All [4]: 3 | Treatment related adverse event: Anemia, ≥3 [4]: 0 | Treatment related adverse event: Fatigue, All [4]: 2 | Treatment related adverse event: Fatigue, ≥3 [4]: 0 | Treatment related adverse event: Flushing, All [4]: 1 | Treatment related adverse event: Flushing, ≥3 [4]: 0 | Treatment related adverse event: Headache, All [4]: 2 | Treatment related adverse event: Headache, ≥3 [4]: 0 | Treatment related adverse event: Hypertension, All [4]: 1 | Treatment related adverse event: Hypertension, ≥3 [4]: 1 | Treatment related adverse event: Nausea, All [4]: 3 | Treatment related adverse event: Nausea, ≥3 [4]: 0 | Treatment related adverse event: Neuropathy peripheral, All [4]: 2 | Treatment related adverse event: Neuropathy peripheral, ≥3 [4]: 0 | Treatment related adverse event: Neutropenia, All [4]: 3 | Treatment related adverse event: Neutropenia, ≥3 [4]: 2 | Treatment related adverse event: Respiratory tract infection, All [4]: 1 | Treatment related adverse event: Respiratory tract infection, ≥3 [4]: 1 | Treatment related adverse event: Thrombocytopenia, All [4]: 3 | Treatment related adverse event: Thrombocytopenia, ≥3 [4]: 1 | Treatment related adverse event: Vomiting, All [4]: 2 | Treatment related adverse event: Vomiting, ≥3 [4]: 0 | Treatment related adverse event: Alopecia, All [5]: 2 | Treatment related adverse event: Alopecia, ≥3 [5]: 0 | Treatment related adverse event: Anemia, All [5]: 9 | Treatment related adverse event: Anemia, ≥3 [5]: 0 | Treatment related adverse event: Fatigue, All [5]: 6 | Treatment related adverse event: Fatigue, ≥3 [5]: 0 | Treatment related adverse event: Flushing, All [5]: 3 | Treatment related adverse event: Flushing, ≥3 [5]: 1 | Treatment related adverse event: Headache, All [5]: 2 | Treatment related adverse event: Headache, ≥3 [5]: 0 | Treatment related adverse event: Hypertension, All [5]: 1 | Treatment related adverse event: Hypertension, ≥3 [5]: 1 | Treatment related adverse event: Nausea, All [5]: 7 | Treatment related adverse event: Nausea, ≥3 [5]: 0 | Treatment related adverse event: Neuropathy peripheral, All [5]: 2 | Treatment related adverse event: Neuropathy peripheral, ≥3 [5]: 0 | Treatment related adverse event: Neutropenia, All [5]: 7 | Treatment related adverse event: Neutropenia, ≥3 [5]: 4 | Treatment related adverse event: Respiratory tract infection, All [5]: 1 | Treatment related adverse event: Respiratory tract infection, ≥3 [5]: 1 | Treatment related adverse event: Thrombocytopenia, All [5]: 7 | Treatment related adverse event: Thrombocytopenia, ≥3 [5]: 1 | Treatment related adverse event: Vomiting, All [5]: 2 | Treatment related adverse event: Vomiting, ≥3 [5]: 0 | Treatment related adverse event: Alopecia, Grade ≥ 3 [6]: 0 n (%) | Treatment related adverse event: Anemia, Grade ≥ 3 [6]: 0 n (%) | Treatment related adverse event: Any Event, Grade ≥ 3 [6]: 5 (26.3) n (%) | Treatment related adverse event: Fatigue, Grade ≥ 3 [6]: 0 n (%) | Treatment related adverse event: Flushing, Grade ≥ 3 [6]: 0 n (%) | Treatment related adverse event: Headache, Grade ≥ 3 [6]: 0 n (%) | Treatment related adverse event: Hypersensitivity, Grade ≥ 3 [6]: 1 (5.3) n (%) | Treatment related adverse event: Infusion related reaction, Grade ≥ 3 [6]: 0 n (%) | Treatment related adverse event: Nausea, Grade ≥ 3 [6]: 0 n (%) | Treatment related adverse event: Neuropathy peripheral, Grade ≥ 3 [6]: 0 n (%) | Treatment related adverse event: Neutropenia, All Grades [6]: 8 (42.1) n (%) | Treatment related adverse event: Neutropenia, Grade ≥ 3 [6]: 4 (21.1) n (%) | Treatment related adverse event: Pruritus, Grade ≥ 3 [6]: 0 n (%) | Treatment related adverse event: Thrombocytopenia, Grade ≥ 3 [6]: 1 (5.3) n (%) | Treatment related adverse event: Vomiting, Grade ≥ 3 [6]: 0 n (%) | DLTs (Cohort 1: A-2 240 mg/m^2 + Carboplatin AUC 5 mg/mL·min, 3/3 evaluable, febrile neutropenia): 1 (febrile | DLTs (Cohort 2: A-2 120 mg/m^2 + Carboplatin AUC 5 mg/mL·min, 3/3 evaluable, acute hypersensitivity): 1 (acute | DLTs (Cohort 3: A-2 120 mg/m^2 + Carboplatin AUC 4 mg/mL·min, 3/3 evaluable): 0 | DLTs (Cohort 4: A-2 90 mg/m^2 + Carboplatin AUC 5 mg/mL·min, 10/10 evaluable, febrile neutropenia): 1 (febrile | Non-DLT G3-4 AE: neutropenia (DL1-2): 4 | DLT: G4 neutropenia and fever (DL1: Compound A-2 240 mg/m^2 + CP AUC 5 mg/mL·min (n=3)): 1 | Non-DLT G3-4 AE: thrombocytopenia (DL2): 1 | DLT: G3 hypersensitivity (DL2: Compound A-2 120 mg/m^2 + CP AUC 5 mg/mL·min (n=3)): 1 | G3-4 AEs (DL3-4 (120 mg/m^2 + CP AUC 4; 90 mg/m^2 + CP AUC 5)): No G3-4 AEs | Pts with DLT (Part B, carboplatin day 1, Compound A-2 days 2 and 9, 14 pts): 2 pts | Grade 3/4-related AEs (part B across the various DLs): 5 pts | DLT: grade 3 hypersensitivity (part B, dosage level B2): 1 pt | DLT: grade 3/4 neutropenia (part B, dosage levels B1 and B2): 2 pts
